Test results as given in patent publication US8877748B2, “Heterocyclic fused anthraquinone derivatives, manufacturing method and pharmaceutical composition using thereof” (National Defense Medical Center, priority 2012, dated 2014).

Assays:
[1] = tested on: HL-60, TB; assay: NCI one-dose screening, leukemia HL-60, TB; type: cell-based, human; conditions: 10 μM
[2] = tested on: MOLT-4; assay: NCI one-dose screening, leukemia MOLT-4; type: cell-based, human; conditions: 10 μM
[3] = tested on: SR; assay: NCI one-dose screening, leukemia SR; type: cell-based, human; conditions: 10 μM
[4] = tested on: PRMI-8226 cell line; assay: NCI one-dose screening, leukemia PRMI-8226; type: cell-based, human; conditions: 10 μM
[5] = tested on: K562cell line; assay: NCI one-dose screening, leukemia K562; type: cell-based, human; conditions: 10 μM
[6] = tested on: EKVX; assay: NCI one-dose screening, non-small cell lung cancer EKVX; type: cell-based, human; conditions: 10 μM
[7] = tested on: HOP-62; assay: NCI one-dose screening, non-small cell lung cancer HOP-62; type: cell-based, human; conditions: 10 μM
[8] = tested on: HOP-92; assay: NCI one-dose screening, non-small cell lung cancer HOP-92; type: cell-based, human; conditions: 10 μM
[9] = tested on: NCI-H226; assay: NCI one-dose screening, non-small cell lung cancer NCI-H226; type: cell-based, human; conditions: 10 μM
[10] = tested on: NCI-H23; assay: NCI one-dose screening, non-small cell lung cancer NCI-H23; type: cell-based, human; conditions: 10 μM
[11] = tested on: NCI-H460; assay: NCI one-dose screening, non-small cell lung cancer NCI-H460; type: cell-based, human; conditions: 10 μM
[12] = tested on: NCI-H522; assay: NCI one-dose screening, non-small cell lung cancer NCI-H522; type: cell-based, human; conditions: 10 μM
[13] = tested on: A549/ATCC; assay: NCI one-dose screening, non-small cell lung cancer A549/ATCC; type: cell-based, human; conditions: 10 μM
[14] = tested on: COLO 205; assay: NCI one-dose screening, colon cancer COLO 205; type: cell-based, human; conditions: 10 μM
[15] = tested on: HCC-2998; assay: NCI one-dose screening, colon cancer HCC-2998; type: cell-based, human; conditions: 10 μM
[16] = tested on: HCT-116; assay: NCI one-dose screening, colon cancer HCT-116; type: cell-based, human; conditions: 10 μM
[17] = tested on: HCT-15; assay: NCI one-dose screening, colon cancer HCT-15; type: cell-based, human; conditions: 10 μM
[18] = tested on: KM12; assay: NCI one-dose screening, colon cancer KM12; type: cell-based, human; conditions: 10 μM
[19] = tested on: HT29; assay: NCI one-dose screening, colon cancer HT29; type: cell-based, human; conditions: 10 μM
[20] = tested on: SF-268; assay: NCI one-dose screening, CNS cancer SF-268; type: cell-based, human; conditions: 10 μM
[21] = tested on: SF-295; assay: NCI one-dose screening, CNS cancer SF-295; type: cell-based, human; conditions: 10 μM
[22] = tested on: SF-539; assay: NCI one-dose screening, CNS cancer SF-539; type: cell-based, human; conditions: 10 μM
[23] = tested on: SNB-19; assay: NCI one-dose screening, CNS cancer SNB-19; type: cell-based, human; conditions: 10 μM
[24] = tested on: SNB-75; assay: NCI one-dose screening, CNS cancer SNB-75; type: cell-based, human; conditions: 10 μM
[25] = tested on: U251; assay: NCI one-dose screening, CNS cancer U251; type: cell-based, human; conditions: 10 μM
[26] = tested on: LOX IMVI; assay: NCI one-dose screening, melanoma LOX IMVI; type: cell-based, human; conditions: 10 μM
[27] = tested on: MALME-3M; assay: NCI one-dose screening, melanoma MALME-3M; type: cell-based, human; conditions: 10 μM
[28] = tested on: M14; assay: NCI one-dose screening, melanoma M14; type: cell-based, human; conditions: 10 μM
[29] = tested on: UACC-62; assay: NCI one-dose screening, melanoma UACC-62; type: cell-based, human; conditions: 10 μM
[30] = tested on: UACC-257; assay: NCI one-dose screening, melanoma UACC-257; type: cell-based, human; conditions: 10 μM
[31] = tested on: SK-MEL-2; assay: NCI one-dose screening, melanoma SK-MEL-2; type: cell-based, human; conditions: 10 μM
[32] = tested on: SK-MEL-28; assay: NCI one-dose screening, melanoma SK-MEL-28; type: cell-based, human; conditions: 10 μM
[33] = tested on: SK-MEL-5; assay: NCI one-dose screening, melanoma SK-MEL-5; type: cell-based, human; conditions: 10 μM
[34] = tested on: IGROV1; assay: NCI one-dose screening, ovarian cancer IGROV1; type: cell-based, human; conditions: 10 μM
[35] = tested on: OVCAR-3; assay: NCI one-dose screening, ovarian cancer OVCAR-3; type: cell-based, human; conditions: 10 μM
[36] = tested on: OVCAR-5; assay: NCI one-dose screening, ovarian cancer OVCAR-5; type: cell-based, human; conditions: 10 μM
[37] = tested on: OVCAR-8; assay: NCI one-dose screening, ovarian cancer OVCAR-8; type: cell-based, human; conditions: 10 μM
[38] = tested on: SK-OV-3; assay: NCI one-dose screening, ovarian cancer SK-OV-3; type: cell-based, human; conditions: 10 μM
[39] = tested on: 786-O; assay: NCI one-dose screening, renal cancer 786-O; type: cell-based, human; conditions: 10 μM
[40] = tested on: CAKI-1; assay: NCI one-dose screening, renal cancer CAKI-1; type: cell-based, human; conditions: 10 μM
[41] = NCI one-dose screening, renal cancer A489; type: cell-based, human; conditions: 10 μM
[42] = tested on: ACHN; assay: NCI one-dose screening, renal cancer ACHN; type: cell-based, human; conditions: 10 μM
[43] = tested on: SN12C; assay: NCI one-dose screening, renal cancer SN12C; type: cell-based, human; conditions: 10 μM
[44] = tested on: TK-10; assay: NCI one-dose screening, renal cancer TK-10; type: cell-based, human; conditions: 10 μM
[45] = tested on: UO-31; assay: NCI one-dose screening, renal cancer UO-31; type: cell-based, human; conditions: 10 μM
[46] = tested on: RXF, 393; assay: NCI one-dose screening, renal cancer RXF, 393; type: cell-based, human; conditions: 10 μM
[47] = tested on: DU145; assay: NCI one-dose screening, prostate cancer DU145; type: cell-based, human; conditions: 10 μM
[48] = tested on: PC-3; assay: NCI one-dose screening, prostate cancer PC-3; type: cell-based, human; conditions: 10 μM
[49] = tested on: MCF7; assay: NCI one-dose screening, breast cancer MCF7; type: cell-based, human; conditions: 10 μM
[50] = tested on: MDA-MB-231/ATCC; assay: NCI one-dose screening, breast cancer MDA-MB-231/ATCC; type: cell-based, human; conditions: 10 μM
[51] = tested on: MDA-MB-468; assay: NCI one-dose screening, breast cancer MDA-MB-468; type: cell-based, human; conditions: 10 μM
[52] = tested on: NCl/ADR-RES; assay: NCI one-dose screening, breast cancer NCl/ADR-RES; type: cell-based, human; conditions: 10 μM; listed under Ovarian cancer
[53] = tested on: BT-549; assay: NCI one-dose screening, breast cancer BT-549; type: cell-based, human; conditions: 10 μM
[54] = tested on: T-47D; assay: NCI one-dose screening, breast cancer T-47D; type: cell-based, human; conditions: 10 μM
[55] = tested on: MDA, -MB-435; assay: NCI one-dose screening, breast cancer MDA, -MB-435; type: cell-based, human; conditions: 10 μM; listed under Melanoma
[56] = tested on: human tumor cell lines; assay: NCI one-dose screening, Mean / Delta / Range of growth percent over all tested cell lines; type: cell-based; conditions: 10 μM

SMILES: O=C1c2ccccc2C(=O)c2c1cc(Sc1ccccn1)c1nsnc21 [C58, 4-(pyridin-2-yl-thio)anthra[2,1-c][1,2,5] thia-diazole-6,11-dione]
- Growth Percent HL-60(TB) [1]: −40.05%
- Growth Percent MOLT-4 [2]: −41.19%
- Growth Percent SR [3]: 0.05%
- Growth Percent RPMI-8226 [4]: −4.48%
- Growth Percent K562 [5]: −23.03%
- Growth Percent EKVX [6]: 97.65%
- Growth Percent HOP-62 [7]: 81.44%
- Growth Percent HOP-92 [8]: −44.56%
- Growth Percent NCI-H226 [9]: 82.43%
- Growth Percent NCI-H23 [10]: 4.86%
- Growth Percent NCI-H460 [11]: 89.65%
- Growth Percent NCI-H522 [12]: 48.83%
- Growth Percent A549/ATCC [13]: 96.53%
- Growth Percent COLO 205 [14]: 111.91%
- Growth Percent HCC-2998 [15]: 106.02%
- Growth Percent HCT-116 [16]: −84.89%
- Growth Percent HCT-15 [17]: 82.58%
- Growth Percent KM12 [18]: 87.50%
- Growth Percent HT29 [19]: 108.08%
- Growth Percent SF-268 [20]: 37.83%
- Growth Percent SF-295 [21]: 78.47%
- Growth Percent SF-539 [22]: 93.92%
- Growth Percent SNB-19 [23]: 103.09%
- Growth Percent SNB-75 [24]: 70.82%
- Growth Percent U251 [25]: 43.78%
- Growth Percent LOX IMVI [26]: −54.85%
- Growth Percent MALME-3M [27]: 18.08%
- Growth Percent M14 [28]: 73.52%
- Growth Percent UACC-62 [29]: 69.46%
- Growth Percent UACC-257 [30]: −10.49%
- Growth Percent SK-MEL-2 [31]: 14.45%
- Growth Percent SK-MEL-28 [32]: 108.55%
- Growth Percent SK-MEL-5 [33]: 61.76%
- Growth Percent IGROV1 [34]: −30.93%
- Growth Percent OVCAR-3 [35]: −90.05%
- Growth Percent OVCAR-5 [36]: 118.16%
- Growth Percent OVCAR-8 [37]: 18.67%
- Growth Percent SK-OV-3 [38]: 115.11%
- Growth Percent 786-0 [39]: −96.82%
- Growth Percent CAKI-1 [40]: 59.22%
- Growth Percent A498 [41]: 68.74%
- Growth Percent ACHN [42]: −71.76%
- Growth Percent SN12C [43]: 77.39%
- Growth Percent TK-10 [44]: 80.94%
- Growth Percent UO-31 [45]: −79.21%
- Growth Percent RXF 393 [46]: 60.19%
- Growth Percent DU145 [47]: 58.15%
- Growth Percent PC-3 [48]: 14.77%
- Growth Percent MCF7 [49]: 68.59%
- Growth Percent MDA-MB-231/ATCC [50]: 4.55%
- Growth Percent MDA-MB-468 [51]: −80.08%
- Growth Percent NCI/ADR-RES [52]: 37.25%
- Growth Percent BT-549 [53]: 76.58%
- Growth Percent T-47D [54]: −52.85%
- Growth Percent MDA-MB-435 [55]: −80.50%
- Growth Percent Delta ([56]; delta over all cell lines): 125.38%
- Growth Percent Mean ([56]; mean over all cell lines): 28.56%
- Growth Percent Range ([56]; range over all cell lines): 214.98%
